These results are taken from paper PMC9841589, “Identification of 2-Aminoacyl-1,3,4-thiadiazoles as Prostaglandin E2 and Leukotriene Biosynthesis Inhibitors” (ACS Medicinal Chemistry Letters, 2022).

In one assay the target is T1, mPGES-1 (Homo sapiens, UniProt O14684).
T1 construct: endogenous in cells; host or cells: A549 cells stimulated with IL-1β; microsomal fraction
T1 sequence (O14684 1-152): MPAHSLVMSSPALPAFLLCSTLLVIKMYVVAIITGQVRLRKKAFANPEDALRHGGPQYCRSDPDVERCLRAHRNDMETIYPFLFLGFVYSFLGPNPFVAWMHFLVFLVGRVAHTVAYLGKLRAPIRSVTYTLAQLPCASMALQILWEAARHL
As to the kind of experiment: Cell-free mPGES-1 activity assay (PGE2 biosynthesis). The format is biochemical. The following applies: 10 μM, percentage of control (100%), read-out: mPGES-1 residual activity at 10 μM (%). An excerpt:
(Table 1). […] From the structural point of view, the biological affinities of compounds 3 and 7 (Figure 2A and C) could be positively affected by the 2-bromobenzoyl substituent able to accommodate in a deep binding pocket on the mPGES-1 surface. This moiety interacts by van der Waals contacts with amino acids of the cytoplasmic part and establishes π-stacking with Phe44ChainC and His53ChainC hydrogen bonds with Ser127, and a halogen bond between the bromine atom and the side chain of Aps49ChainC. Furthermore, the 3-phenylphenol and 2-aminobiphenyl moieties of 3 and 7 (Figure 2A and C), respectively, are able to establish a peculiar π-stacking with Tyr130ChainA and a hydrogen bond with Gln134ChainA. […]
mM glutathione, and 250 mM sucrose) and the protein concentration was defined. Potassium phosphate buffer (0.1 M, pH = 7.4) plus glutathione (2.5 mM) was added to dilute microsomes, which were then seeded in a 96-well plate. […]
preincubated for 15 min on ice. MK886 (10 µM) and MD-52 (1 µM) were used as reference drugs.
The reactions started by adding 20 µM of PGH2, and 1 min later, 100 µl of a solution containing FeCl3 (40 mM), citric acid (80 mM), and 11β-PGE 2 (10 µM) were added for stopping the conversion of PGH2. After the extraction of PGE2 and 11β-PGE 2 (internal stardard) by solid-phase extraction, […]

The subject of assay [1] is zymosan-induced peritonitis. As to the kind of experiment: Zymosan-induced peritonitis in mice. The format is in vivo, mouse. The settings on record: 3 mg/kg i.p. As to the method:
Figure 5 Effect of compound 3 in zymosan-induced peritonitis in mice. Mice were randomly divided into different experimental groups: control group (Ctrl), model group (zymosan + vehicle compound 3), zymosan + compound 3 (i.p. injection 30 min after i.p. injection of zymosan) group, and zymosan + dexamethasone (i.p. injection 30 min after i.p. injection of zymosan) group. At (A) 4 and (B) 24 h after injection, peritoneal exudate from each mouse was recovered, and the total cell number was evaluated. Results are expressed as mean ± SD. For statistical analysis see SI.
Figure 6 Analysis of cytokine levels collected in the peritoneal exudate of mice from different experimental groups: (A, B) IL-1β, (C, D) IL-6, (E, F) PGE2, and (G, H) IL-10. Results (normalized to exudate levels) are expressed as mean ± SD. For statistical analysis see SI.
Induction of peritonitis in mice and Enzyme-Linked Immunosorbent Assay (ELISA)
To examine the anti-inflammatory action of compound 3, we next evaluated the biological activity of
compound 3 in a mouse model of zymosan-induced peritonitis, as as previously described. 13,14 26, 27
To this aim, mice were randomly divided into different experimental groups: control group (Ctrl),
model group (zymosan + vehicle compound 3), zymosan + compound 3 (0.1, 1, and 10 mg/kg), and
zymosan + dexamethasone (3 mg/kg) group. Animals received the selected compound or
dexamethasone intraperitoneally (i.p.) 30 min after i.p. injection of zymosan (500 mg/kg)26, 27. Ctrl
and model groups received an equal volume of vehicle (PBS or DMSO/saline 1:3, respectively).
Peritoneal exudates were collected at selected time points (4 and 24 h) by washing the cavity with 2
mL of PBS. Then cell number of lavage fluids was determined by TC10 automated cell counter (Bio-
Rad, Milan, Italy) using disposable slides. The remaining lavage fluids were centrifuged at 3000 rpm
for 20 min at 4 °C, and supernatants were frozen at −80 °C for further ELISA analysis according to
the manufacturer instructions (eBioscience Co., San Diego, CA, USA)10 23 of IL-1β, IL-6, PGE 2 and
IL-10 following the procedure previously described15-17 28-30. Dexamethasone and zymosan A were
purchased from Sigma-Aldrich (Milan, Italy). DMSO was purchased from Merck (Italy). Unless
otherwise stated, all the other reagents were purchased from Carlo Erba (Milan, Italy).
The data and statistical analysis in this study comply with the international recommendations on
experimental design and analysis in preclinical pharmacology18-2031-33. The results obtained were
expressed as the mean ± S.D. or as mean ± S.E.M., as reported in detail in the figure legends. IC 50
values were calculated by nonlinear regression using GraphPad Prism Version 8.0 software (San
Diego, CA) one site binding competition. Statistical evaluation of the data was performed by one-

Turning to `Cc1ccoc1C(=O)Nc1nnc(-c2ccc(-c3cccc(O)c3)cc2)s1` [compound 1], the remaining activity at 10 µM at mPGES-1 is above 50%.

As for `Cc1cc(C(=O)Nc2nnc(-c3ccc(-c4cccc(O)c4)cc3)s2)cc(Cl)n1` [compound 2], on mPGES-1, the remaining activity at 10 µM is above 50%. Turning to `O=C(Nc1nnc(-c2ccc(-c3cccc(O)c3)cc2)s1)c1cc(F)ccc1F` [compound 4], on mPGES-1, the remaining activity at 10 µM was above 50%.

With `Cc1ccoc1C(=O)Nc1nnc(-c2ccc(-c3ccccc3N)cc2)s1` [compound 5], the remaining activity at 10 µM on mPGES-1 was above 25%.

In the case of `Nc1ccccc1-c1ccc(-c2nnc(NC(=O)c3cc(F)ccc3F)s2)cc1` [compound 8], the remaining activity at 10 µM on mPGES-1 is above 50%. Turning to `C[C@@H]1C[C@H]2[C@@H]3CCC4=CC(=O)C=C[C@]4(C)[C@@]3(F)[C@@H](O)C[C@]2(C)[C@@]1(O)C(=O)CO` [dexamethasone, reference compound], in assay [1] (4 and 24 h), the “IL-1β level in peritoneal exudate” value is recorded as “more prominent effect”, the “IL-6 level in peritoneal exudate” value was “more prominent effect”, the “IL-10 level in peritoneal exudate” value is “more prominent effect” and the “PGE2 level in peritoneal exudate” value is given as “more prominent effect”. Also, the “leukocyte numbers in the peritoneal cavity” value in assay [1] (4 h (P ≤ 0.005) and 24 h (P ≤ 0.01)) was “significantly reduced”.
